System: rat islets of Langerhans
Assay: glucose-stimulated insulin secretion by isolated islets of Langerhans
Format: cell-based
Details: glucose 10 mmol/L
Procedure: All experiments were performed by known methods used in experimental practice. See, e.g., Lacey P. E., and Kostianovsky M, Method for the isolation of intact islets of Langerhans from the rat pancreas. Diabetes 1967; 16: 35-39.
Briefly, rats were killed, and islets of Langerhans were isolated from their pancreases. Experiments were performed either with freshly isolated islets or after overnight incubation of islets (23 h) in standard culture medium and conditions at 37° C. […] Incubation of islets for these experiments was carried out in standard Krebs-Heinsleit buffer, and it was verified that the addition of the 1.0 mmol/L citrate buffer had no effect on the pH of the incubation medium. Stimulation of islets was carried out at the standard stimulatory glucose concentration of 10 mmol/L.
Production of insulin is expressed as μU/islet/h. All experiments were performed with five replicates per point. The integrity of the islet response was assessed by comparing the responses after stimulation of different aliquots of islets by two and ten mmol/L glucose, respectively, and the strength of the inhibitory response was judged against that induced by 1 μg/ml (650 nmol/L) somatostatin. […] See Arimura A. Biomed res 1981; 2: 233-257. […] See Petterson M., Ahren B., Bottcher G., Sundler F., Endocrinology 1986; 119: 865-869.
The results are shown in TABLE 5 below and all results are expressed as ± standard error of the mean (s.e.m.). The significance of differences between the means of groups is assessed by the t-test. The result of stimulation by 10 mmol/L glucose is compared with the results of stimulation at 2 mmol/L glucose. In all other experimental conditions, the significance of the inhibitory effect is measured against the effect of 10 mmol/L glucose alone.

Row | Compound | INSULIN PRODUCTION Mean Value (substance 650 nmol/L) | RELATIVE INSULIN SECRETION INHIBITION (substance 650 nmol/L) | INSULIN PRODUCTION Mean Value (substance 10 nmol/L) | RELATIVE INSULIN SECRETION INHIBITION (substance 10 nmol/L) | INSULIN PRODUCTION Mean Value (substance 100 nmol/L) | RELATIVE INSULIN SECRETION INHIBITION (substance 100 nmol/L) | INSULIN PRODUCTION Mean Value (substance 1000 nmol/L) | RELATIVE INSULIN SECRETION INHIBITION (substance 1000 nmol/L)
1 | C[C@H](N)C(=O)NCC(=O)N[C@H]1CSSC[C@@H](C(=O)O)NC(=O)[C@H](CO)NC(=O)[C@H]([C@@H](C)O)NC(=O)[C@H](Cc2ccccc2)NC(=O)[C@H]([C@@H](C)O)NC(=O)[C@H](CCCCN)NC(=O)[C@H](Cc2c[nH]c3ccccc23)NC(=O)[C@H](Cc2ccccc2)NC(=O)[C@H](Cc2ccccc2)NC(=O)[C@H](CC(N)=O)NC(=O)[C@H](CCCCN)NC1=O [Somatostatin, reference compound] | 44 μU/islet/hr | 45% |  |  |  |  |  | 
2 | CGRP 27-37 |  |  | 36 μU/islet/hr | 55% | 36 μU/islet/hr | 55% | 46 μU/islet/hr | 42%

Source: patent publication US5281581A, “Treatment of insulin resistance” (Amylin Pharmaceuticals, Inc., priority 1992, dated 1994)
